This is an account of results in US20160263094A1, “Pantoprazole Sodium Composition Lyophilized Powder for Injection” (priority 2013, published 2016).

This assay relates to gastric ulcer. As to the kind of experiment: Glacial acetic acid-induced gastric ulcer in SD rats. Format: in vivo. To be noted: 1.3 mg/kg, control group 2 continuous administration 15 d, treatment groups 10 d, three times a day. As to the method: 50 SD rats are used, made to starve for 24 h before testing. The abdominal cavity is opened under ether anesthesia, a glass tube with the inner diameter of 5 mm and the length of 30 mm is vertically placed on the surface of serosa of the gastric body and 0.2 ml of glacial acetic acid is added into the tube cavity. The glacial acetic acid is dipped out with a cotton swab after 5 min, and the surgical incision is sutured. Normal diet is permitted after the surgery, and animals are randomly divided into 5 groups on the next day: a control group 1 (distilled water), a control group 2 (pantoprazole sodium for injection), with continuous administration for 15 d, a treatment group 1 (embodiment 1), a treatment group 2 (embodiment 2) and a treatment group 3 (embodiment 3); and continuous administration is performed for 10 d, three times a day. The stomach is taken out by anatomy, fixed with formaldehyde, cut open along the greater curvature of the stomach and flat spread on a glass plate, and the transverse diameter d1 and the vertical diameter d2 of an ulcer are measured. The area of the ulcer S (mm2) is calculated according to a formula S=π×(d1/2)×(d2/2) to serve as an ulcer index, and ulcer healing rate and ulcer inhibition rate are calculated.

`COc1ccnc(C[S+]([O-])c2nc3cc(OC(F)F)ccc3[n-]2)c1OC.[Na+]` (stereo not shown) [Control group 2, 5-difluoromethoxy-2-[(3,4-dimethoxy-2-pyridinyl)methyl]sulfinyl-1H-benzimidazole]: the Healing rate was 90%; the “Number of healed animals” value is on record as 9; the “Ulcer index (x ± s), ulcer area S=π×(d1/2)×(d2/2)” value is 6.3 ± 6.1 mm2; the Ulcer inhibition rate was 65.1%.
